Earlier results on 1 molecule are cited in patent US20220288013A1, “1,8-CINEOL COATED IMPLANTS” (THE BOARD OF TRUSTEES OF THE LELAND STANFORD JUNIOR …, priority 2019, published 2022).

One series has as its system Wnt11. The conditions noted are these: HNSCC cell lines.
The test system of series [1] is head and neck squamous cell carcinoma (HNSCC) cell lines. The conditions noted are these: exposure of different cell lines; permanent HNSCC cell lines.
A further series relates to WNT/β-catenin pathway. The conditions noted are these: permanent HNSCC cell lines.

With `CC12CCC(CC1)C(C)(C)O2` [1,8-cineol, 1,3,3-Trimethyl-2-oxabicyclo[2.2.2]octane], the “expression of Wnt11” value in the series with Wnt11 is recorded as “reduces expression of Wnt11”. In series [1], the proliferation entry is “inhibit proliferation”. For the same molecule, the “activity of the WNT/β-catenin pathway (canonical pathway), especially of Wnt11” value with WNT/β-catenin pathway is given as “decrease the activity of the WNT/β-catenin pathway”.
